Key:
Experiment in all cases: normalised viability (% of control), CellTiter-Blue; higher = more viable cells (about 100 = DMSO control)
Conditions in all cases: incubation time: 72 h
[1] = tested on: CAL-148
Method: (§1)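 DSRT, CellTiter-Blue viability, 72 h incubation. Signal is normalised to DMSO and benzethonium chloride controls. Value is the normalised response at dose 6.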

[2] = tested on: CAL-51
Method: as §1

[3] = tested on: CAL-85-1
Method: as §1

[4] = tested on: DU-4475
Method: as §1

[5] = tested on: HDQ-P1
Method: as §1

[6] = tested on: MDA-MB-453
Method: as §1

[7] = tested on: CAL-148; remark: listed apart in the source
Method: (§2)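 DSRT, CellTiter-Blue viability, 72 h incubation. Signal is normalised to DMSO and benzethonium chloride controls. Value is the normalised response at dose 8.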

[8] = tested on: CAL-51; remark: listed apart in the source
Method: as §2

[9] = tested on: CAL-85-1; remark: listed apart in the source
Method: as §2

[10] = tested on: DU-4475; remark: listed apart in the source
Method: as §2

[11] = tested on: HDQ-P1; remark: listed apart in the source
Method: as §2

[12] = tested on: MDA-MB-453; remark: listed apart in the source
Method: as §2

| Structure (SMILES) | normalised viability [1] [%] | normalised viability [2] [%] | normalised viability [3] [%] | normalised viability [4] [%] | normalised viability [5] [%] | normalised viability [6] [%] | normalised viability [7] [%] | normalised viability [8] [%] | normalised viability [9] [%] | normalised viability [10] [%] | normalised viability [11] [%] | normalised viability [12] [%] |
| --- | --- | --- | --- | --- | --- | --- | --- | --- | --- | --- | --- | --- |
| COc1ncc(-c2ccc3nccc(-c4ccnnc4)c3c2)cc1NS(=O)(=O)c1ccc(F)cc1F (30 nM) | 43.7 | 33.1 | 50.4 | 63.6 | 30.4 | 12.1 |  |  |  |  |  |  |
| COc1ncc(-c2ccc3nccc(-c4ccnnc4)c3c2)cc1NS(=O)(=O)c1ccc(F)cc1F (300 nM) |  |  |  |  |  |  | 6.61 | 6.4 | 17.9 | 37.8 | 21.2 | 4.39 |
| C[C@@]1(C(=O)Nc2ccc(F)nc2)CCCN1c1nc(Nc2cc(C3CC3)n[nH]2)c2cccn2n1 (300 nM) | 95.7 | 88.3 | 65.7 | 77.7 | 50.3 | 84.6 |  |  |  |  |  |  |
| C[C@@]1(C(=O)Nc2ccc(F)nc2)CCCN1c1nc(Nc2cc(C3CC3)n[nH]2)c2cccn2n1 (3000 nM) |  |  |  |  |  |  | 42.9 | 31.4 | 38.1 | 14.8 | 25.6 | 65.4 |
| COc1c(C)cnc(Cn2cnc3c(Cl)nc(N)nc32)c1C [BIIB021] (300 nM) | 29.5 | 57.6 | 56.8 | 0.39 | 60.8 | 17.3 |  |  |  |  |  |  |
| COc1c(C)cnc(Cn2cnc3c(Cl)nc(N)nc32)c1C [BIIB021] (3000 nM) |  |  |  |  |  |  | 17 | 10.2 | 22.9 | -0.3 | 33 | 6.99 |
| CC(C)C[C@H](NC(=O)[C@H](Cc1ccccc1)NC(=O)c1cnccn1)B(O)O [Bortezomib] (30 nM) | 41 | 67.6 | 7.63 | 9.69 | 2.53 | 24 |  |  |  |  |  |  |
| CC(C)C[C@H](NC(=O)[C@H](Cc1ccccc1)NC(=O)c1cnccn1)B(O)O [Bortezomib] (300 nM) |  |  |  |  |  |  | 9.74 | 1.35 | 2.25 | 0.52 | 1.48 | 19.3 |
| CS(=O)(=O)OCCCCOS(C)(=O)=O [Busulfan] (3000 nM) | 114 | 92.8 | 106 | 76 | 83 | 99.9 |  |  |  |  |  |  |
| CS(=O)(=O)OCCCCOS(C)(=O)=O [Busulfan] (30000 nM) |  |  |  |  |  |  | 107 | 100 | 96.5 | 91 | 102 | 117 |
| C#Cc1cccc(Nc2ncnc3cc(OC)c(OCCCCCCC(=O)NO)cc23)c1 [CUDC-101] (300 nM) | 81.9 | 105 | 64.1 | 75.1 | 38.8 | 46 |  |  |  |  |  |  |
| C#Cc1cccc(Nc2ncnc3cc(OC)c(OCCCCCCC(=O)NO)cc23)c1 [CUDC-101] (3000 nM) |  |  |  |  |  |  | 11.9 | 68 | 4.33 | 35 | 41.6 | 4.71 |
| CC[C@@]1(O)C(=O)OCc2c1cc1n(c2=O)Cc2cc3ccccc3nc2-1 [Camptothecin] (150 nM) | 12.8 | 12.7 | 61 | 13.9 | 48.3 | 50.7 |  |  |  |  |  |  |
| CC[C@@]1(O)C(=O)OCc2c1cc1n(c2=O)Cc2cc3ccccc3nc2-1 [Camptothecin] (1500 nM) |  |  |  |  |  |  | 1.27 | 4.85 | 25.1 | 0.88 | 31.6 | 21.5 |
| COc1cccc2c1C(=O)c1c(O)c3c(c(O)c1C2=O)C[C@@](O)(C(C)=O)C[C@@H]3O[C@H]1C[C@H](N)[C@H](O)[C@H](C)O1 [Daunorubicin] (30 nM) | 59.5 | 54.5 | 94.6 | 64.7 | 74.9 | 93.7 |  |  |  |  |  |  |
| COc1cccc2c1C(=O)c1c(O)c3c(c(O)c1C2=O)C[C@@](O)(C(C)=O)C[C@@H]3O[C@H]1C[C@H](N)[C@H](O)[C@H](C)O1 [Daunorubicin] (300 nM) |  |  |  |  |  |  | 48.7 | 31.2 | 53.8 | 33.6 | 52.7 | 76.1 |
| CN1CCN(c2ccc3nc(-c4c(N)c5c(F)cccc5[nH]c4=O)[nH]c3c2)CC1 [Dovitinib] (300 nM) | 98.7 | 109 | 86.9 | 86.5 | 54.7 | 94.5 |  |  |  |  |  |  |
| CN1CCN(c2ccc3nc(-c4c(N)c5c(F)cccc5[nH]c4=O)[nH]c3c2)CC1 [Dovitinib] (3000 nM) |  |  |  |  |  |  | 90.2 | 109 | 86.9 | 87.9 | 87.4 | 93.4 |
| O=c1[nH]c(=O)n([C@H]2C[C@H](O)[C@@H](CO)O2)cc1F [Floxuridine] (300 nM) | 55.2 | 35 | 58.7 | 76 | 78.8 | 90.8 |  |  |  |  |  |  |
| O=c1[nH]c(=O)n([C@H]2C[C@H](O)[C@@H](CO)O2)cc1F [Floxuridine] (3000 nM) |  |  |  |  |  |  | 44.8 | 22.8 | 42.9 | 97.9 | 80.1 | 71.8 |
